Reference: patent US20250099532A1, “METHODS OF TREATMENT USING OXYTOCIN” (Belnap Pharmaceuticals, LLC, priority 2022, published 2025)

How the values were obtained:
depression = details: after a single administration; cited from earlier work
patients = assay: Clinical observations in treated patients; type: in vivo, human
Description: It is imperative that patients get as quickly to the positive zone as possible. […] Anxiety is a major contributor to chronic inflammation, which decreases BDNF and the continued loss of synaptic connections.

Row | SMILES | begin of antidepressant effects post-infusion (depression) [min] | loss of superiority to placebo post-infusion (depression) [days] | peak of antidepressant effects (depression) | duration of positive effects of a series of infusions (patients; IV ketamine alone, series of infusions (e.g., six)) | relief of anxiety compared with depression (patients; patients, ketamine treatments alone) | time the patient continued to stay sober (patients; Patient 3 (alcoholic), patient attributes it to the addition of oxytocin) [months] | response of the patient's anxiety with oxytocin compared with ketamine treatment alone (patients; Patient 10 (PTSD, Depression, and Anxiety)) | recovery from anxiety compared with ketamine infusions alone (patients; patients, addition of oxytocin treatment) | ketamine experience when oxytocin is administered prior to the ketamine treatment (patients; patients, oxytocin before ketamine) | recovery from depression and anxiety compared with ketamine alone (patients; patients, oxytocin prior to ketamine treatment)
1 | CNC1(c2ccccc2Cl)CCCCC1=O (racemic) [ketamine, Ketamine (racemic)] | 40 | 10 to 12 | approximately 24 h | one month to several (e.g., 4-6) months | a lot slower |  |  |  |  | 
2 | CC[C@H](C)[C@@H]1NC(=O)[C@H](Cc2ccc(O)cc2)NC(=O)[C@@H](N)CSSC[C@@H](C(=O)N2CCC[C@H]2C(=O)N[C@@H](CC(C)C)C(=O)NCC(N)=O)NC(=O)[C@H](CC(N)=O)NC(=O)[C@H](CCC(N)=O)NC1=O [oxytocin] |  |  |  |  |  | 18 | much quicker | much quicker recovery | much more calm and euphoric ketamine experience | recovering much more quickly
